Results on six compounds are retold here after paper doi:10.1101/2023.09.25.559386v1 (biorxiv, 2023).

Experiment [1] has as its target T1, D1R (Homo sapiens, UniProt P21728). Put plainly: radioligand competition binding, cell homogenates. (Loss of bound radioactivity is the signal in a displacement assay; it reports binding, not function.)
Experiment [2] addresses T1, D1R. Put plainly: BRET Gs heterotrimer dissociation. In kind it is cell-based. For orientation: Bioluminescence resonance energy transfer reports proximity on the nanometre scale.

Broadly, the Ki is a measure of affinity in units of concentration, obtained from inhibition or displacement. A low value points to tighter binding. The term pKi denotes the negative decadic logarithm of the Ki, by convention in mol/L.

T1 sequence (P21728 whole entry): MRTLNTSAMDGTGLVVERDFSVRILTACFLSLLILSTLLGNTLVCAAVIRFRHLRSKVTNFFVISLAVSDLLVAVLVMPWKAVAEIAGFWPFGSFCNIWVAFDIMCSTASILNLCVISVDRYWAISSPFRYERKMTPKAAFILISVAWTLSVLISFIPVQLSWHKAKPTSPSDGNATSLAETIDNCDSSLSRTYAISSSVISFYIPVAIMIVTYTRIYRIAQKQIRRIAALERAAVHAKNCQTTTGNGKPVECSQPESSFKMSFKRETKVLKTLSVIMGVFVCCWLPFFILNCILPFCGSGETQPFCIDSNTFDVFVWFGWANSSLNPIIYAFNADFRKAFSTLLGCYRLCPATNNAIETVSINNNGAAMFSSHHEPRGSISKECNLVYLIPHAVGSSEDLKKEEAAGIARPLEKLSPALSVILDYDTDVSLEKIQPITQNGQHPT

In turn, `CN1CCc2cc(Cl)c(O)cc2C(c2ccc(NS(=O)(=O)CCCNC(=O)c3ccc(-c4c5ccc(N(C)C)cc5[o+]c5cc(N(C)C)ccc45)c(C(=O)[O-])c3)cc2)C1` (racemic) [compound 23, 5-((3-(N-(4-(7-Chloro-8-hydroxy-3-methyl-2,3,4,5-tetrahydro-1H-benzo[d]azepin-1-yl)phenyl)sulfamoyl)propyl)carbamoyl)-2-(6-(dimethylamino)-3-(dimethyliminio)-3H-xanthen-9-yl)benzoate] had a Ki on D1R [1] of 0.398 µM. At D1R [1], `CN1CCc2cc(Cl)c(O)cc2C(c2ccc(NS(=O)(=O)CCCCC(=O)NCc3cn(CCOCCNC(=O)c4ccc(-c5c6ccc(N(C)C)cc6[o+]c6cc(N(C)C)ccc56)c(C(=O)[O-])c4)nn3)cc2)C1` (racemic) [compound 25, 2-(3,6-Bis(dimethylamino)xanthylium-9-yl)-5-((2-(2-(4-((5-(N-(4-(7-chloro-8-hydroxy-3-methyl-2,3,4,5-tetrahydro-1H-benzo[d]azepin-1-yl)phenyl)sulfamoyl)pentanamido)methyl)-1H-1,2,3-triazol-1-yl)ethoxy)ethyl)carbamoyl)benzoate] had a Ki of 0.00457 µM. Further, the Kb at D1R [2] is 0.0513 µM. On to `CN1CCc2cc(Cl)c(O)cc2C(c2ccc(NS(=O)(=O)CCCCC(=O)NCc3cn(CCOCCOCCNC(=O)c4ccc(-c5c6ccc(N(C)C)cc6[o+]c6cc(N(C)C)ccc56)c(C(=O)[O-])c4)nn3)cc2)C1` (racemic) [compound 27, 2-(3,6-Bis(dimethylamino)xanthylium-9-yl)-5-((2-(2-(2-(4-((5-(N-(4-(7-chloro-8-hydroxy-3-methyl-2,3,4,5-tetrahydro-1H-benzo[d]azepin-1-yl)phenyl)sulfamoyl)pentanamido)methyl)-1H-1,2,3-triazol-1-yl)ethoxy)ethoxy)ethyl)carbamoyl)benzoate], for which, on D1R [1], the Ki was 0.00955 µM. Same read-out and setting: to `COCC[N+]1=C(/C=C/C=C2N(CCCCCC(=O)NCCCS(=O)(=O)Nc3ccc(C4CN(C)CCc5cc(Cl)c(O)cc54)cc3)c3ccc(S(=O)(=O)[O-])cc3C2(C)CCCS(=O)(=O)O)C(C)(CCCS(=O)(=O)O)c2cc(S(=O)(=O)O)ccc21` (stereo not shown) [compound 24, (E)-1-(6-((3-(N-(4-(7-Chloro-8-hydroxy-3-methyl-2,3,4,5-tetrahydro-1H-benzo[d]azepin-1-yl)phenyl)sulfamoyl)propyl)amino)-6-oxohexyl)-2-((E)-3-(1-(2-methoxyethyl)-3-methyl-5-sulfo-3-(3-sulfopropyl)-3H-indol-1-ium-2-yl)allylidene)-3-methyl-3-(3-sulfopropyl)indoline-5-sulfonate] belongs 0.0102 µM; to `COCC[N+]1=C(/C=C/C=C2N(CCCCCC(=O)NCCOCCn3cc(CNC(=O)CCCCS(=O)(=O)Nc4ccc(C5CN(C)CCc6cc(Cl)c(O)cc65)cc4)nn3)c3ccc(S(=O)(=O)[O-])cc3C2(C)CCCS(=O)(=O)O)C(C)(CCCS(=O)(=O)O)c2cc(S(=O)(=O)O)ccc21` (stereo not shown) [compound 26, 2-((E)-3-((E)-1-(6-((2-(2-(4-((5-(N-(4-(7-Chloro-8-hydroxy-3-methyl-2,3,4,5-tetrahydro-1H-benzo[d]azepin-1-yl)phenyl)sulfamoyl)pentanamido)methyl)-1H-1,2,3-triazol-1-yl)ethoxy)ethyl)amino)-6-oxohexyl)-3-methyl-5-sulfonato-3-(3-sulfonatopropyl)indolin-2-ylidene)prop-1-en-1-yl)-1-(2-methoxyethyl)-3-methyl-3-(3-sulfonatopropyl)-3H-indol-1-ium-5-sulfonate], 0.288 µM. On to `COCC[N+]1=C(/C=C/C=C2N(CCCCCC(=O)NCCOCCOCCn3cc(CNC(=O)CCCCS(=O)(=O)Nc4ccc(C5CN(C)CCc6cc(Cl)c(O)cc65)cc4)nn3)c3ccc(S(=O)(=O)[O-])cc3C2(C)CCCS(=O)(=O)O)C(C)(CCCS(=O)(=O)O)c2cc(S(=O)(=O)O)ccc21` (stereo not shown) [compound 28, 2-((E)-3-((E)-1-(6-((2-(2-(2-(4-((5-(N-(4-(7-Chloro-8-hydroxy-3-methyl-2,3,4,5-tetrahydro-1H-benzo[d]azepin-1-yl)phenyl)sulfamoyl)pentanamido)methyl)-1H-1,2,3-triazol-1-yl)ethoxy)ethoxy)ethyl)amino)-6-oxohexyl)-3-methyl-5-sulfonato-3-(3-sulfonatopropyl)indolin-2-ylidene)prop-1-en-1-yl)-1-(2-methoxyethyl)-3-methyl-3-(3-sulfonatopropyl)-3H-indol-1-ium-5-sulfonate], for which, at D1R [1] ([…] [3H]SCH-23390, […] min, room temperature), the pKi is on record as 6.85 ± 0.07.
